In article PMC3090393, “New Noncovalent Inhibitors of Penicillin-Binding Proteins from Penicillin-Resistant Bacteria” (PLoS ONE, 2011):
In brackets after ≈: the same amount, converted by molar mass.

How the values were obtained:
[1] = molecular target: T1, PBP2a (Staphylococcus aureus, UniProt P07944); test: PBP2a enzymatic inhibition assay (fluorescein-labeled ampicillin, residual penicillin binding activity); assay type: biochemical, Staphylococcus aureus ATCC 43300
T1 construct: made in house
Description: (§1) PBP2a from Staphylococcus aureus ATCC 43300 and PBP5fm from Enterococcus faecium D63r were overproduced and purified as described previously, [18].
(§2) Each of the purified PBPs (2.5 µM) were first incubated with 1 mM potential inhibitor in 100 mM phosphate buffer, 0.01% Triton X-100[19], pH 7, for 4 h at 30°C. Then, 25 µM fluorescein-labeled ampicillin[20] was added to detect the residual penicillin binding activity (RA). The samples were further incubated for 30 min at 37°C in a total volume of 20 µL. Denaturation buffer was added (0.1 M Tris/HCl, pH 6.8, containing 25% glycerol, 2% SDS, 20% β-mercaptoethanol and 0.02% bromophenol blue) and the samples were heated to 100°C for 1 min. The samples were then loaded onto a 10% SDS-acrilamide gel (10×7 cm) and electrophoresis was performed for 45 min at 180 V (12 mA). Detection and quantification of the RAs were with Molecular Image FX equipment and Quantity One software (BioRad, Hercules, CA, USA). Three independent experiments were carried out for each inhibitor.

[2] = molecular target: PBP2x 5204 (Streptococcus pneumoniae, UniProt P59676); test: PBP2x 5204 enzymatic inhibition assay (S2d hydrolysis, DTNB); assay type: biochemical, Streptococcus pneumoniae strain 5204; settings: residual activity of the enzyme at 1 mM inhibitor; 240 min
Description: PBP2x-5204 from Streptococcus pneumonia and N-benzoyl-D-alanyl-thioglycolate S2d[21], [22] were prepared as previously described. All assays with PBP2x 5204 were carried out in 96-well microtiter plates (Brand, Wertheim, Germany). PBP2x 5204 (0.6 µM) was incubated in the presence of the potential inhibitors in 10 mM sodium phosphate buffer (pH 7.0) containing 70 mM D-alanine and 0.01 mg/mL BSA, for 4 h at 25°C. This preincubation was used to also detect slow binding inhibitors. After the preincubation, the RA of PBP2x 5204 was determined. The initial rate of hydrolysis of 1 mM S2d in the presence of 1 mM DTNB was determined by monitoring the increase in absorbance at 412 nm (DTNB: ε[Δ ε] = […]) using a microplate absorbance reader (Power Wave X, Biotek Instruments, Winooski, U.S.A.). The rate of spontaneous hydrolysis of S2d in the presence of the potential inhibitors was also determined in the absence of PBP2x 5204. All of the assays were carried out in triplicate. The determination of the RA of PBP2x 5204 in the absence of inhibitors was carried out six times on each plate. A test compound was considered as an inhibitor if the RA was <80%. In this case, to reveal false positives, the assays were also carried out under the same conditions in the presence of 0.01% Triton X-100. As described in the literature, promiscuous inhibitors (false positives) are slow binding, noncompetitive inhibitors. To avoid detailed kinetic investigations, it is possible to identify such compounds by carrying out the assays in the presence of Triton X-100[14], [19]. Promiscuous inhibitors show no inhibition in the presence of Triton X-100. The IC50 values in the presence of Triton X-100 were determined if the RAs were <50%. (RA: ∼50%, IC50∼c, c: concentration of compound in the assay; RA >50%, IC50 > c). The RA was measured over a range of concentrations, from which the IC50 values were determined by non-linear regression analysis, using Sigma Plot (Systat software) and fitting the data to the equation y = y0+(a×b)/(b+x)[23].

[3] = molecular target: PBP5fm (Enterococcus faecium, UniProt Q47759); test: PBP5fm enzymatic inhibition assay (fluorescein-labeled ampicillin, residual penicillin binding activity); assay type: biochemical, Enterococcus faecium D63r
Description: as §1, §2

[4] = tested on: Bacillus subtilis ATCC 6633; test: In-vitro antibacterial activity (MIC, broth microdilution); assay type: cell-based; settings: ATCC6633
Description: (§3) Determination of the antibacterial activities was carried out on microtiter plates, in 200 µL (final volume) of Müeller-Hinton Broth (MHB), following EUCAST (European Committee on Antimicrobial Susceptibility testing)/CLSI (Clinical and Laboratory Standard Institute) recommended procedures, [25]. The compounds were solubilized in MHB, just before use. Inocula were prepared for each strain by resuspending isolated colonies from 18 h cultured plates. Equivalents of 0.5 Mac Farland turbidity standards (approximately 1×10^8 CFU mL^−1) were prepared in saline solution ([…]) and then diluted 200-fold in MBH.

[5] = tested on: Citrobacter freundii ATCC 8090; test: as above; assay type: cell-based; settings: ATCC8090
Description: as §3

[6] = tested on: Enterococcus faecalis ATCC 29212; test: as above; assay type: cell-based; settings: ATCC29212
Description: as §3

[7] = tested on: Enterococcus faecalis ATCC 7937; test: as above; assay type: cell-based; settings: ATCC7937
Description: as §3

[8] = tested on: Enterococcus faecium ATCC 19434; test: as above; assay type: cell-based; settings: ATCC19434
Description: as §3

[9] = tested on: Enterococcus hirae ATCC 8790; test: as above; assay type: cell-based; settings: ATCC8790
Description: as §3

[10] = tested on: Escherichia coli ATCC 8739; test: as above; assay type: cell-based; settings: ATCC8739
Description: as §3

[11] = tested on: Klebsiella pneumoniae ATCC 13883; test: as above; assay type: cell-based; settings: ATCC13883
Description: as §3

[12] = tested on: Listeria innocua ATCC 33090; test: as above; assay type: cell-based; settings: ATCC33090
Description: as §3

[13] = tested on: Listeria monocytogenes ATCC 14780; test: as above; assay type: cell-based; settings: ATCC14780
Description: as §3

[14] = tested on: Micrococcus luteus ATCC 9341; test: as above; assay type: cell-based; settings: ATCC9341
Description: as §3

[15] = tested on: Proteus mirabilis ATCC 29936; test: as above; assay type: cell-based; settings: ATCC29936
Description: as §3

[16] = tested on: Pseudomonas aeruginosa ATCC 27853; test: as above; assay type: cell-based; settings: ATCC27853
Description: as §3

[17] = tested on: Staphylococcus aureus ATCC 25923; test: as above; assay type: cell-based; settings: ATCC25923
Description: as §3

[18] = tested on: Staphylococcus aureus ATCC 43300 (MRSA); test: as above; assay type: cell-based
Description: as §3

[19] = tested on: Staphylococcus aureus mp 1 (inducible MRSA); test: as above; assay type: cell-based
Description: as §3

[20] = tested on: Staphylococcus epidermidis ATCC 12228; test: as above; assay type: cell-based; settings: ATCC12228
Description: as §3

[21] = tested on: Streptococcus pneumoniae ATCC 33400; test: as above; assay type: cell-based; settings: ATCC33400
Description: as §3

[22] = tested on: Streptococcus pneumoniae ATCC 49619; test: as above; assay type: cell-based; settings: ATCC49619
Description: as §3

[23] = tested on: Streptococcus pneumoniae D39; test: as above; assay type: cell-based
Description: as §3

[24] = tested on: panel of five Gram-negative and 15 Gram-positive bacterial strains; test: In-vitro antibacterial activity (MIC), whole panel; assay type: cell-based; settings: summary over the whole panel; read-out: MICs for all of the bacterial strains under investigation
Description: as §3

[25] = in the presence of 0.01% Triton X-100

PBP5fm, sequence (Q47759 entry or part of it): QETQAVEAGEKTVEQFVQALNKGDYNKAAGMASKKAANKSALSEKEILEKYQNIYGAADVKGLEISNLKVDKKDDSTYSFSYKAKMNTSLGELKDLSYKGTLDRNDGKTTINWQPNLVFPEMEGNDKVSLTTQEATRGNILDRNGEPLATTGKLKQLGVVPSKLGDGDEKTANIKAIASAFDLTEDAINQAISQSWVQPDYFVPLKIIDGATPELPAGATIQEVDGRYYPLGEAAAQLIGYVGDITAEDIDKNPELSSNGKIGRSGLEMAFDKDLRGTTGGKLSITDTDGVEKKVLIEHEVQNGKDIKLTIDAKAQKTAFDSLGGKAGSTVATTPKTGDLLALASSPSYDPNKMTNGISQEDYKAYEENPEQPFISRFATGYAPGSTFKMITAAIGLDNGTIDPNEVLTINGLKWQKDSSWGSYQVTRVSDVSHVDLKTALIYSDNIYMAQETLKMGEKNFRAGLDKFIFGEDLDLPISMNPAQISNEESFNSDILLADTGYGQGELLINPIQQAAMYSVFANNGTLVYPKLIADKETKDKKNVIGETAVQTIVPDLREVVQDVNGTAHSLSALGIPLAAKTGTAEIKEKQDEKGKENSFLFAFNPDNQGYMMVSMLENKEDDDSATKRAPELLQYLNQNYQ
T1 sequence (P07944 whole entry): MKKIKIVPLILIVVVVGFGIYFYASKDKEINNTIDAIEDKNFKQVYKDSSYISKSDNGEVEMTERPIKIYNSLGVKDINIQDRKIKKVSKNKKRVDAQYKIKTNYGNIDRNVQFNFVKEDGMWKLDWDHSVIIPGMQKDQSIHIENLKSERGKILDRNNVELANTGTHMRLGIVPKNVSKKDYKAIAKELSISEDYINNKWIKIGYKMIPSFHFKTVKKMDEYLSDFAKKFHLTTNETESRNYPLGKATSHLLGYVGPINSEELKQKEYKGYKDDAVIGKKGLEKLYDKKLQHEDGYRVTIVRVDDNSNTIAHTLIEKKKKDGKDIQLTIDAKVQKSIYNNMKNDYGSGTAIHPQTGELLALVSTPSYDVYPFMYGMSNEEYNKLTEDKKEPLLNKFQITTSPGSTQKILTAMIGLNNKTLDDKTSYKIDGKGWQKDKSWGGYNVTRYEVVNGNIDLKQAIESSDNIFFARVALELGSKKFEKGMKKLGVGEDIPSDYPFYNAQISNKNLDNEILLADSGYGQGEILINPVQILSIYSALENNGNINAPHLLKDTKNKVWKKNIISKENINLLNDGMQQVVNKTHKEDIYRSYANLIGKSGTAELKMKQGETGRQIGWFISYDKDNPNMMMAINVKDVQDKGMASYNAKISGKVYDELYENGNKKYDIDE
PBP2x 5204, sequence (P59676 49-750): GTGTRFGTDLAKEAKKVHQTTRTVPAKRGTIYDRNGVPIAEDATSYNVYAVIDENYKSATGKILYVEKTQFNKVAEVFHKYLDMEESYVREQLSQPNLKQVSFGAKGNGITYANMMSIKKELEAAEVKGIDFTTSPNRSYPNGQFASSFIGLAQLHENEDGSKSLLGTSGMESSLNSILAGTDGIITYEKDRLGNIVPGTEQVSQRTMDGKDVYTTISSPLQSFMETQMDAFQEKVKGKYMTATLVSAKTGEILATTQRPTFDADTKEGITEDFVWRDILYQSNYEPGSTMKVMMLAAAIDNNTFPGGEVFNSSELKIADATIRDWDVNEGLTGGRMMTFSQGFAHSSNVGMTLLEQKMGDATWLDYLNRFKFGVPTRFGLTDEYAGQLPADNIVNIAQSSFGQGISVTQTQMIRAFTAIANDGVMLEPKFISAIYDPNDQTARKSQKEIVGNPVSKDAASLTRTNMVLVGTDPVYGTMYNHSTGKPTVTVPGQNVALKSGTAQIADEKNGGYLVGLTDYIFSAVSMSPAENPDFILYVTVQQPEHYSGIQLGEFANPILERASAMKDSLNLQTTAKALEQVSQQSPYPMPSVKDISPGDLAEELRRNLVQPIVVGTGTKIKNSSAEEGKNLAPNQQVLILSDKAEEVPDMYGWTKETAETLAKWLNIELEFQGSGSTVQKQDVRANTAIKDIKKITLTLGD

Structure (SMILES): CCCOc1cccc(C(=O)Nc2ccccc2C(=O)O)c1 [compound 12, 2-(3-Propoxybenzamido)benzoic acid]
- remaining activity at 1000 µM ([1]; 4 h, residual activity of the enzyme at 1 mM inhibitor, 0.01% Triton X-100, mean of three experiments, read-out: PBP2a RA [%]): 47%
- IC50 [1, 25]: 910 µM
- PBP2x5204 RA [%] [2]: 97%
- activity at 1000 µM ([3]; 4 h, residual activity of the enzyme at 1 mM inhibitor, 0.01% Triton X-100, read-out: PBP5fm RA [%]): 34%
- IC50 [3, 25]: > 1000 µM
- MIC [4]: > 512 µg/mL
- MIC [5]: > 512 µg/mL
- MIC [6]: 256 µg/mL (≈ 855 µM)
- MIC [7]: > 512 µg/mL
- MIC [8]: > 512 µg/mL
- MIC [9]: 256 µg/mL (≈ 855 µM)
- MIC [10]: > 512 µg/mL
- MIC [11]: > 512 µg/mL
- MIC [12]: > 512 µg/mL
- MIC [13]: > 512 µg/mL
- MIC [14]: 256 µg/mL (≈ 855 µM)
- MIC [15]: > 512 µg/mL
- MIC [16]: > 512 µg/mL
- MIC [17]: 512 µg/mL (≈ 1710 µM)
- MIC [18]: 512 µg/mL (≈ 1710 µM)
- MIC [19]: 512 µg/mL (≈ 1710 µM)
- MIC [20]: 256 µg/mL (≈ 855 µM)
- MIC [21]: 256 µg/mL (≈ 855 µM)
- MIC [22]: 256 µg/mL (≈ 855 µM)
- MIC [23]: 256 µg/mL (≈ 855 µM)
- MIC [24]: ≥ 256 µg/mL
